# Source: PubChem BioAssay (NCI)
#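 Step 1: Grow cells in 96-well plates. Step 2: Expose to compound for 48 hours at 5 concentrations. Step 3: Interpolate endpoints linearly; if unreached, use highest concentration. Here, GI50 denotes the concentration required for 50% inhibition of growth. TGI is the concentration that stops growth completely.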
# Columns and labels:
# Test in all cases: NCI tumour cell line growth inhibition, 48 h
# [1] = tested on: UACC-62 melanoma
# [2] = tested on: RPMI-8226 leukemia
# [3] = tested on: OVCAR-4 ovarian
# [4] = tested on: SK-MEL-28 melanoma
# [5] = tested on: SF-539 CNS
# [6] = tested on: HCT-15 colon
# [7] = tested on: SK-MEL-2 melanoma
# [8] = tested on: OVCAR-3 ovarian
# [9] = tested on: NCI-H460 lung
# [10] = tested on: PC-3 prostate
Compound,TGI [1] [µM],TGI [2] [µM],TGI [3] [µM],TGI [4] [µM],TGI [5] [µM],TGI [6] [µM],TGI [7] [µM],TGI [8] [µM],TGI [9] [µM],GI50 [1] [µM],GI50 [2] [µM],GI50 [3] [µM],GI50 [9] [µM],GI50 [4] [µM],GI50 [5] [µM],GI50 [6] [µM],GI50 [7] [µM],GI50 [8] [µM],TGI [10] [µM],GI50 [10] [µM]
CCOC(=O)c1ccc(N2C(=O)/C(=C\OC)c3ccccc3C2=O)cc1,> 100,> 100,> 100,> 100,> 100,> 100,> 100,> 100,–,–,–,–,–,–,–,–,–,–,–,–
CC(C)(C)[C@H]1CO[C@]2(C)[C@@H]3C[C@@H]3C(=O)N12,> 100,> 100,> 100,> 100,> 100,> 100,> 100,> 100,> 100,–,–,–,–,–,–,–,–,–,–,–
N.N.NC(CS)C(=O)[O-].NC(CS)C(=O)[O-].[Pt+4] (stereo not drawn),> 50,> 50,> 50,> 50,> 50,> 50,> 50,> 50,> 50,> 50,> 50,> 50,> 50,> 50,> 50,> 50,> 50,> 50,–,–
ON=C1CCC(c2ccccc2)CC1 (stereo not drawn),> 100,–,> 100,> 100,> 100,> 100,> 100,> 100,> 100,–,–,–,–,–,–,–,–,–,–,–
c1ccc(N=C2c3ccccc3C3=NCCCN32)cc1,> 100,> 100,> 100,> 100,> 100,> 100,> 100,> 100,> 100,–,–,–,–,–,–,–,–,–,–,–
Cc1cc(C)nc(Nc2nc3ccc([N+](=O)[O-])cc3[nH]2)n1,> 100,> 100,> 100,> 100,> 100,> 100,> 100,> 100,> 100,–,–,–,–,–,–,–,–,–,–,–
COC(=O)Nc1nc2ccccc2c(=O)[nH]1,> 100,–,> 100,> 100,> 100,> 100,> 100,> 100,> 100,–,–,–,–,–,–,–,–,–,> 100,–
CC(=O)/C=C/c1ccc(C2CC(C)=Nc3c(ccc4c3C(=O)c3ccccc3C4=O)N2)cc1 (stereo not drawn),> 100,> 100,> 100,> 100,> 100,> 100,> 100,> 100,> 100,–,–,–,–,–,–,–,–,–,–,–
O=C(O)C12C3CCCC1C2CC3 (stereo not drawn),> 100,> 100,–,> 100,> 100,> 100,> 100,> 100,> 100,–,–,–,–,–,–,–,–,–,–,–
Nc1c(-c2nc3ccccc3[nH]2)sc(=S)n1-c1ccccc1,70,> 100,> 100,> 100,> 100,> 100,> 100,> 100,> 100,–,–,–,–,–,–,–,–,–,–,–
O=C(c1ccccc1)c1c(C(=O)c2ccccc2)c(-c2ccccc2)c2c(-c3ccccc3)sc(-c3ccccc3)c2c1-c1ccccc1,> 100,> 100,> 100,> 100,> 100,> 100,–,> 100,> 100,–,–,–,–,–,–,–,–,–,–,–
O=C(O)c1cc2c(cn1)[nH]c1ccccc12,> 100,> 100,> 100,> 100,> 100,> 100,–,> 100,> 100,–,–,–,–,–,–,–,–,–,–,–
CC(C(=O)Oc1ccc2ccccc2c1-c1c(O)ccc2ccccc12)c1ccccc1 (stereo not drawn),27,57.6,23.5,29.2,33.9,27.2,29.7,26.6,27.6,–,–,–,–,–,–,–,–,–,–,–
COC(=O)c1c(CC#N)cccc1CC#N,> 100,> 100,> 100,–,> 100,> 100,> 100,> 100,> 100,–,–,–,–,–,–,–,–,–,–,–
CC(c1cccc2ccccc12)/[N+]([O-])=C/c1ccccc1 (stereo not drawn),–,> 100,–,> 100,> 100,–,> 100,> 100,> 100,–,–,–,–,–,–,–,–,–,–,–
C=C1CC[C@@H]2C(C)(C)CCC[C@@]2(C)[C@@H]1Cc1cc(O)ccc1O,22.8,15.9,3.72,9.83,3.9,12.3,6.39,18.5,33.4,–,–,–,–,–,–,–,–,–,–,–
O=C1C(=O)N(c2ccc(Cl)c(Cl)c2)C(=O)C(=O)C1c1nc2ccccc2o1,> 100,66.5,> 100,> 100,> 100,> 100,> 100,> 100,> 100,–,–,–,–,–,–,–,–,–,–,–
CC(=O)OC(C)(C)/C=C/C(=O)[C@](C)(O)[C@H]1[C@H](O)C[C@@]2(C)[C@@H]3CC=C4[C@@H](C[C@H](O)C(=O)C4(C)C)[C@]3(C)C(=O)C[C@]12C,2.17,< 0.01,< 0.01,< 0.01,< 0.01,4.99,< 0.01,0.17,1.37,–,–,–,–,–,–,–,–,–,–,–
COc1ccc2ccc([Se]c3ccc4ccc(OC)cc4c3)cc2c1,> 100,> 100,46.6,> 100,> 100,> 100,> 100,> 100,> 100,–,–,–,–,–,–,–,–,–,–,–
O=S1(=O)C[C@@H](O)[C@H](O)CS1,> 100,> 100,> 100,> 100,> 100,–,–,> 100,> 100,–,–,–,–,–,–,–,–,–,–,–
O=C(Nc1ccc(Cl)cc1)c1cc2ccccc2cc1O,> 100,–,> 100,> 100,> 100,> 100,13.1,6.67,> 100,0.899,–,4.41,2.67,7.62,4.01,3.1,2.87,2.01,> 100,2.99

Compound,TGI [1] [µM],TGI [2] [µM],TGI [3] [µM],TGI [4] [µM],TGI [5] [µM],TGI [6] [µM],TGI [7] [µM],TGI [8] [µM],TGI [9] [µM],GI50 [1] [µM],GI50 [2] [µM],GI50 [3] [µM],GI50 [9] [µM],GI50 [4] [µM],GI50 [5] [µM],GI50 [6] [µM],GI50 [7] [µM],GI50 [8] [µM],TGI [10] [µM],GI50 [10] [µM]
CCOP(=O)(OCC)/C(C#N)=C/c1ccco1,> 100,> 100,> 100,> 100,> 100,> 100,> 100,–,> 100,–,–,–,–,–,–,–,–,–,–,–
CC[N+](CC)(CC)CCCn1c2c(c3ccccc3c1=O)C(=O)c1ccccc1-2,29.3,> 100,> 100,> 100,–,> 100,53.4,50.2,4.49,9.31,5.2,55.3,1.85,29.2,–,4.97,21.8,9.05,69.1,9.13
Cc1cc(S(=O)(=O)Nc2nnc(-c3ccccc3)c(-c3ccccc3)n2)c(SCc2ccccc2)cc1Cl,30.9,52.8,37.2,40.7,38.6,43.3,–,34.8,65.7,16.1,11.5,19.9,23.8,22.6,19.9,20.3,–,17.9,58,21.2
CN(c1ccccc1)C(c1ccccc1)C(O)c1ccccc1 (stereo not drawn),38.1,49.3,34.5,41.7,37.7,40.3,31.8,32,36.2,–,–,–,–,–,–,–,–,–,–,–
COC(=O)c1ccc(N=NN(C)CO)cc1,> 100,> 100,> 100,> 100,> 100,> 100,> 100,> 100,> 100,–,–,–,–,–,–,–,–,–,–,–
CC1NOC(=O)C1N=Nc1ccccc1Cl (stereo not drawn),> 100,54.7,> 100,> 100,> 100,–,> 100,> 100,> 100,–,–,–,–,–,–,–,–,–,–,–
CC(=O)Nc1ccc(C2[C@H]3C(=O)N(c4ccc(Cc5ccc(N6C(=O)[C@@H]7ON(c8ccccc8)C(c8ccc(NC(C)=O)cc8)[C@@H]7C6=O)cc5)cc4)C(=O)[C@H]3ON2c2ccccc2)cc1 (stereo partly drawn),> 100,> 100,> 100,> 100,> 100,> 100,> 100,> 100,> 100,–,–,–,–,–,–,–,–,–,–,–
CC(=O)OCC1OC(n2c(=O)n(-c3ccccc3)c(=O)c3ccccc32)C(OC(C)=O)C(OC(C)=O)C1OC(C)=O (stereo not drawn),> 100,> 100,> 100,> 100,> 100,> 100,> 100,> 100,> 100,–,–,–,–,–,–,–,–,–,–,–
S=C(Nc1ccc(Cl)cc1)Nc1ccc(-c2nc3ccccc3[nH]2)cc1,14.8,> 21.2,> 84.3,35.5,13.5,12.9,–,–,> 43.4,5.15,2.23,15.4,9.28,–,5.27,3.82,–,1.33,35.8,5.37
COC(=O)C1=C(O)C(O)=C(C(=O)OC)C1,> 100,> 100,> 100,> 100,> 100,> 100,> 100,> 100,> 100,–,–,–,–,–,–,–,–,–,–,–
COC[n+]1cc2cc(OC)c(OC)cc2c2ccc3cc(OC)c(OC)cc3c21,> 100,> 100,> 100,> 100,> 100,> 100,> 100,> 100,> 100,–,–,–,–,–,–,–,–,–,–,–
O=C(CCCn1ccnc1[N+](=O)[O-])NCCn1ccnc1,> 100,–,–,> 100,> 100,> 100,> 100,> 100,> 100,–,–,–,–,–,–,–,–,–,> 100,–
COC(=O)c1nc(NC#N)[nH]c(=O)c1C,> 100,> 100,> 100,> 100,> 93,> 100,> 100,> 100,> 100,–,–,–,–,–,–,–,–,–,–,–
CS(=O)c1ccc(COP(N)(=O)N(CCCl)CCCl)cc1 (stereo not drawn),> 100,> 100,> 100,> 100,> 100,–,> 100,> 100,> 100,–,–,–,–,–,–,–,–,–,–,–
COc1ccc(/C=C2/C[N+](C)(C)C/C(=C/c3ccc(OC)cc3)C2=O)cc1,47.5,31.1,> 88.9,18.6,> 100,> 100,71.7,98.5,> 100,–,–,–,–,–,–,–,–,–,–,–
O=C1OC2(c3ccccc3Oc3ccccc32)c2ccccc21,> 100,> 100,> 100,> 100,> 100,> 100,> 100,> 100,> 100,–,–,–,–,–,–,–,–,–,–,–
[N-]=[N+]=NC1C(Br)C(=O)NC(=O)N1[C@H]1C[C@H](O)[C@@H](CO)O1 (stereo partly drawn),> 100,> 100,> 100,> 100,> 100,–,> 100,> 100,> 100,–,19.6,–,–,–,–,–,–,–,–,–
CCN(CC)CCCCCCCNc1c2ccc(Cl)cc2nc2ccc(OC)cc12,4.09,1.3,2.9,3.64,–,6.59,3.77,3.69,1.67,2.04,0.337,0.913,0.416,1.91,–,0.997,1.56,1.55,2.85,0.843
O=C([CH-]C(=O)c1ccccc1)c1ccccc1.O=C([CH-]C(=O)c1ccccc1)c1ccccc1.[Nd+3].[OH-].[OH3+],22.2,–,> 100,44.8,48,34.1,27,26.6,25.3,4.76,6.04,16.4,6.18,11.5,15.8,8.5,9.48,8.31,–,–
COc1ccc2[nH]c(Cl)c(/C=C3/C(=O)N(C)c4ccccc43)c2c1,> 100,> 100,> 100,> 100,–,> 100,> 100,> 100,> 100,71,> 100,> 100,> 100,> 100,–,> 100,> 100,55.1,> 100,> 100
